Measurements taken from patent US4012385A, “Antibacterial quinoxaline 1,4-dioxides” (Pfizer Inc., priority 1975, dated 1977).
In brackets after ≈: the same amount, converted by molar mass.

Key:
Streptococcus pyogenes = experiment: in vitro antibacterial activity (MIC), two-fold serial dilution in Brain-Heart Infusion broth; details: read-out: MIC Strep pyogenes
Protocol: (§1) The broth is inoculated with bacteria, and with the quinoxaline 1,4-dioxide or 1,3 -dihydrofuro[3,4-b]quinoxaline 4,9-dioxide, and then it is incubated overnight at 37 ° C., under anaerobic conditions. On the next day, the test is read visually. The minimum inhibitory concentration (MIC) of test compound is the lowest concentration which prevents turbidity, i.e. which prevents growth of the microorganism.

Salmonella Choleraesuis [1] = experiment: as above; details: Salmonella enterica, read-out: MIC Sal. Choleraesuis
Protocol: as §1

Escherichia coli = experiment: as above; details: read-out: MIC Esch coli
Protocol: as §1

Salmonella Choleraesuis [2] = details: mice, 25 mg./kg., multiple dosing, percentage of animals which survive
Protocol: The test compound is administered using a multiple dosing regimen at a dosage of 25 mg./kg., and using either the oral (PO) or the subcutaneous (SC) route. The inoculum of bacteria varies from one to about ten times the amount needed to kill 100% of the mice, under conditions of the test. At the end of the test, the activity of a compound is assessed by counting the number of survivors among the treated animals and expressing the activity of a compound as the percentage of animals which survive.

SMILES	MIC (Streptococcus pyogenes)	MIC (Salmonella Choleraesuis [1])	MIC (Escherichia coli)	Percentage protection vs. Sal. Choleraesuis, PO (Salmonella Choleraesuis [2])	Percentage protection vs. Sal. Choleraesuis, SC (Salmonella Choleraesuis [2])
COC1(c2ccccc2)OCc2c1[n+]([O-])c1ccccc1[n+]2[O-] (stereo not shown) [1-Methoxy-1-phenyl-1,3-dihydrofuro[3,4-b]quinoxaline 4,9-Dioxide]	25 mg/L (≈ 80.6 µM)	100 mg/L (≈ 322 µM)	25 mg/L (≈ 80.6 µM)	30%	30%
CC(=O)OCc1c(C(=O)c2ccccc2)[n+]([O-])c2ccccc2[n+]1[O-] [2-Benzoyl-3-acetoxymethylquinoxaline 1,4-Dioxide]	12.5 mg/L (≈ 36.9 µM)	50 mg/L (≈ 148 µM)	12.5 mg/L (≈ 36.9 µM)	50%	10%
CC(=O)SCc1c(C(=O)c2ccccc2)[n+]([O-])c2ccccc2[n+]1[O-] [2-Benzoyl-3-acetylthiomethylquinoxaline 1,4-Dioxide]	> 200 mg/L	> 200 mg/L	> 200 mg/L	30%	20%
O=C(c1ccccc1)c1c(CO)[n+]([O-])c2ccccc2[n+]1[O-] [2-Benzoyl-3-hydroxymethylquinoxaline 1,4-Dioxide]	0.78 mg/L (≈ 2.63 µM)	6.25 mg/L (≈ 21.1 µM)	1.56 mg/L (≈ 5.27 µM)	80%	60%
CS(=O)(=O)Cc1c(C(=O)c2ccccc2)[n+]([O-])c2ccccc2[n+]1[O-] [2-Benzoyl-3-methylsulfonylmethylquinoxaline 1,4-Dioxide]	12.5 mg/L (≈ 34.9 µM)	25 mg/L (≈ 69.8 µM)	25 mg/L (≈ 69.8 µM)	60%	30%
